Measurements taken from PubChem BioAssay AID1919006 (Molecular Pharmacology Branch, DTP, NCI, 2023).
Values joined by “and” are separate entries in the source; they are usually repeats but may differ in a detail not shown here. Equal entries are not always repeated.

Test system: 885512-296-R-J2-PDC complex spheroid growth, % test/control
Assay: Anticancer human tumor 885512-296-R-J2-PDC patient-derived breast carcinoma cell line growth inhibition [AhR]
Conditions: for viability, T/C: stronger effect = lower value
In short: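 Spheroids combined tumor cells with HUVEC endothelial cells and human MSCs as stroma. AhR antagonists were paired with standard or investigational drugs, each dosed in half-log steps down from near clinical Cmax, or from 10 microM where Cmax was unknown.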

[1] = curve of first compound, second compound 0.1 µM
[2] = curve of first compound, second compound 0.316 µM
[3] = curve of first compound, second compound 1 µM
[4] = curve of first compound, second compound 3.16 µM
[5] = curve of first compound, second compound 10 µM
[6] = second compound 0.1 µM, first compound 0.0316 µM
[7] = second compound 0.1 µM, first compound 0.1 µM
[8] = second compound 0.1 µM, first compound 0.316 µM
[9] = second compound 0.1 µM, first compound 1 µM
[10] = second compound 0.1 µM, first compound 3.16 µM
[11] = second compound 0.1 µM, first compound 10 µM
[12] = second compound 0.316 µM, first compound 0.0316 µM
[13] = second compound 0.316 µM, first compound 0.1 µM
[14] = second compound 0.316 µM, first compound 0.316 µM
[15] = second compound 0.316 µM, first compound 1 µM
[16] = second compound 0.316 µM, first compound 3.16 µM
[17] = second compound 0.316 µM, first compound 10 µM
[18] = second compound 1 µM, first compound 0.0316 µM
[19] = second compound 1 µM, first compound 0.1 µM
[20] = second compound 1 µM, first compound 0.316 µM
[21] = second compound 1 µM, first compound 1 µM
[22] = second compound 1 µM, first compound 3.16 µM
[23] = second compound 1 µM, first compound 10 µM
[24] = second compound 3.16 µM, first compound 0.0316 µM
[25] = second compound 3.16 µM, first compound 0.1 µM
[26] = second compound 3.16 µM, first compound 0.316 µM
[27] = second compound 3.16 µM, first compound 1 µM
[28] = second compound 3.16 µM, first compound 3.16 µM
[29] = second compound 3.16 µM, first compound 10 µM
[30] = second compound 10 µM, first compound 0.0316 µM
[31] = second compound 10 µM, first compound 0.1 µM
[32] = second compound 10 µM, first compound 0.316 µM
[33] = second compound 10 µM, first compound 1 µM
[34] = second compound 10 µM, first compound 3.16 µM
[35] = second compound 10 µM, first compound 10 µM
[36] = second compound 0.1 µM, first compound 0.00316 µM
[37] = second compound 0.1 µM, first compound 0.01 µM
[38] = second compound 0.316 µM, first compound 0.00316 µM
[39] = second compound 0.316 µM, first compound 0.01 µM
[40] = second compound 1 µM, first compound 0.00316 µM
[41] = second compound 1 µM, first compound 0.01 µM
[42] = second compound 3.16 µM, first compound 0.00316 µM
[43] = second compound 3.16 µM, first compound 0.01 µM
[44] = second compound 10 µM, first compound 0.00316 µM
[45] = second compound 10 µM, first compound 0.01 µM
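Further: spheroids exposed to compounds for seven days.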

IC50 [1]	IC50 [2]	IC50 [3]	IC50 [4]	IC50 [5]	SMILES	viability, T/C [6]	viability, T/C [7]	viability, T/C [8]	viability, T/C [9]	viability, T/C [12]	viability, T/C [13]	viability, T/C [14]	viability, T/C [15]	viability, T/C [18]	viability, T/C [19]	viability, T/C [20]	viability, T/C [24]	viability, T/C [25]	viability, T/C [30]	viability, T/C [31]	also measured
31.6 nM	48.3 nM	< 31.6 nM	< 31.6 nM	< 31.6 nM	COc1cc(Nc2ncc3c(n2)-c2ccc(Cl)cc2C(c2c(F)cccc2OC)=NC3)ccc1C(=O)O + Cc1cncc(-c2nc(NCCc3c[nH]c4ccccc34)c3ncn(C(C)C)c3n2)c1	49.5%	46.1%	47.6%	50.6%	53.3%	43.6%	48%	42.4%	44.5%	37.8%	46%	32.6%	35.6%	16.2%	12.8%	viability, T/C [10]: 30.2%; viability, T/C [11]: 32%; viability, T/C [16]: 45.8%; viability, T/C [17]: 34.2%; viability, T/C [21]: 41.7%; viability, T/C [22]: 39.7%; viability, T/C [23]: 39.5%; viability, T/C [26]: 33.6%; viability, T/C [27]: 34%; viability, T/C [28]: 32.2%; viability, T/C [29]: 31.2%; viability, T/C [32]: 13.3%; viability, T/C [33]: 14.8%; viability, T/C [34]: 17.2%; viability, T/C [35]: 17.6%
					Cc1ccccc1N=Nc1ccc(NC(=O)c2ccnn2C)c(C)c1																viability, T/C (compound 10 µM): 53.1% [middle of 21 runs]
34.4 nM	33.4 nM	22.1 nM	3.22 nM	< 3.16 nM	CC1COCCN1c1cc(-c2ccnn2C)c2ccnc(-c3ccn[nH]3)c2n1 (stereo not drawn) + Cc1cncc(-c2nc(NCCc3c[nH]c4ccccc34)c3ncn(C(C)C)c3n2)c1	55.2%	9.6%	3.2%	2.72%	51.9%	9.85%	3.26%	2.57%	40.3%	7.24%	2.89%	33.7%	8.94%	9.95%	6.27%	viability, T/C [36]: 99.4%; viability, T/C [37]: 85.3%; viability, T/C [38]: 83.1%; viability, T/C [39]: 95.9%; viability, T/C [40]: 74.4%; viability, T/C [41]: 71.3%; viability, T/C [21]: 2.37%; viability, T/C [42]: 48.9%; viability, T/C [43]: 50.1%; viability, T/C [26]: 2.55%; viability, T/C [27]: 2.78%; viability, T/C [44]: 13.3%; viability, T/C [45]: 15.6%; viability, T/C [32]: 3.04%; viability, T/C [33]: 2.87%
					CCN(c1cc(-c2ccc(CN3CCOCC3)cc2)cc(C(=O)NCc2c(C)cc(C)[nH]c2=O)c1C)C1CCOCC1																viability, T/C (compound 0.00949 µM): 99.4% and 113% and 105%; viability, T/C (compound 0.03 µM): 116% and 94.8% and 94.7%; viability, T/C (compound 0.0949 µM): 93% and 86.7% and 98.8%; viability, T/C (compound 0.3 µM): 89.7% and 91.3% and 78.9%; viability, T/C (compound 0.949 µM): 86.7% and 77.8% and 76.2%; viability, T/C (compound 3 µM): 72.8% and 67.7% and 80.9%; IC50 (curve of compound): > 3000 nM
404 nM	415 nM	423 nM	290 nM	186 nM	COc1cc(C2c3cc4c(cc3C(OC3OC5COC(C)OC5C(O)C3O)C3COC(=O)C23)OCO4)cc(OC)c1O (stereo not drawn) + Cc1ccccc1N=Nc1ccc(NC(=O)c2ccnn2C)c(C)c1	101%	115%	59.6%	19.2%	120%	107%	60.2%	17.9%	96.2%	102%	60.8%	81.4%	71.5%	57.4%	63.5%	viability, T/C [10]: 7.36%; viability, T/C [11]: 7.36%; viability, T/C [16]: 9.41%; viability, T/C [17]: 9.17%; viability, T/C [21]: 17.3%; viability, T/C [22]: 9.27%; viability, T/C [23]: 8.44%; viability, T/C [26]: 49.5%; viability, T/C [27]: 15.3%; viability, T/C [28]: 7.76%; viability, T/C [29]: 7.73%; viability, T/C [32]: 41.1%; viability, T/C [33]: 13.5%; viability, T/C [34]: 8.01%; viability, T/C [35]: 7.22%
> 100 nM	> 100 nM	> 100 nM	35.2 nM	< 0.316 nM	Cn1ncnc1C1c2n[nH]c(=O)c3cc(F)cc(c23)NC1c1ccc(F)cc1 (stereo not drawn) + Cc1cncc(-c2nc(NCCc3c[nH]c4ccccc34)c3ncn(C(C)C)c3n2)c1	82.4%	56.2%			76%	53.5%			68.3%	51.8%		49.2%	45.7%	22.1%	21.6%	viability, T/C (second compound 0.1 µM, first compound 0.000316 µM): 116%; viability, T/C (second compound 0.1 µM, first compound 0.001 µM): 112%; viability, T/C [36]: 99.8%; viability, T/C [37]: 99.1%; viability, T/C (second compound 0.316 µM, first compound 0.000316 µM): 120%; viability, T/C (second compound 0.316 µM, first compound 0.001 µM): 108%; viability, T/C [38]: 105%; viability, T/C [39]: 87.4%; viability, T/C (second compound 1 µM, first compound 0.000316 µM): 87.1%; viability, T/C (second compound 1 µM, first compound 0.001 µM): 99.5%; viability, T/C [40]: 79.4%; viability, T/C [41]: 74.9%; viability, T/C (second compound 3.16 µM, first compound 0.000316 µM): 55.2%; viability, T/C (second compound 3.16 µM, first compound 0.001 µM): 58.4%; viability, T/C [42]: 54.6%; viability, T/C [43]: 54.5%; viability, T/C (second compound 10 µM, first compound 0.000316 µM): 23.8%; viability, T/C (second compound 10 µM, first compound 0.001 µM): 21.6%; viability, T/C [44]: 21.3%; viability, T/C [45]: 18.1%
763 nM	764 nM	958 nM	713 nM	< 31.6 nM	Nc1ccccc1NC(=O)c1ccc(CNC(=O)OCc2cccnc2)cc1 + Cc1ccccc1N=Nc1ccc(NC(=O)c2ccnn2C)c(C)c1	95.5%	89.5%	64.3%	43.7%	92%	77.7%	68.8%	43.1%	97.7%	91.5%	69.5%	75.2%	69.7%	49.4%	45.1%	viability, T/C [10]: 28.3%; viability, T/C [11]: 11.1%; viability, T/C [16]: 26.5%; viability, T/C [17]: 10.7%; viability, T/C [21]: 48.7%; viability, T/C [22]: 29.2%; viability, T/C [23]: 11.2%; viability, T/C [26]: 62.3%; viability, T/C [27]: 44.3%; viability, T/C [28]: 27.7%; viability, T/C [29]: 12.4%; viability, T/C [32]: 44.5%; viability, T/C [33]: 32.5%; viability, T/C [34]: 23.5%; viability, T/C [35]: 12.8%
< 31.6 nM	< 31.6 nM	< 31.6 nM	< 31.6 nM	< 31.6 nM	COc1cccc2c1C(=O)c1c(O)c3c(c(O)c1C2=O)CC(O)(C(=O)CO)CC3OC1CC(N)C(O)C(C)O1 (stereo not drawn) + Cc1ccccc1N=Nc1ccc(NC(=O)c2ccnn2C)c(C)c1	15.3%	14.2%	2.62%	0.35%	16%	14.5%	3.8%	0.52%	16%	12.7%	2.55%	15.9%	13.5%	13.2%	10.1%	viability, T/C [10]: 1.6%; viability, T/C [11]: 1.27%; viability, T/C [16]: 1.44%; viability, T/C [17]: 1.34%; viability, T/C [21]: 0.36%; viability, T/C [22]: 1.75%; viability, T/C [23]: 1.27%; viability, T/C [26]: 2.36%; viability, T/C [27]: 0.36%; viability, T/C [28]: 1.22%; viability, T/C [29]: 0.78%; viability, T/C [32]: 1.82%; viability, T/C [33]: 0.82%; viability, T/C [34]: 1.07%; viability, T/C [35]: 1.04%
